Laboratory results published in patent US7951814B2, “Quinazolinedione derivatives as TRPA1 modulators” (Glenmark Pharmaceuticals, S.A., priority 2008, dated 2011).

Biological target: T1, Human TRPA1 expressing CHO cells (Homo sapiens, UniProt O75762)
T1 construct: expressed in transfected cells; host or cells: CHO cells (under G-418 selection)
Assay: 45Calcium uptake assay: inhibition of AITC induced cellular uptake of radioactive calcium
Format: cell-based
Conditions: AITC 30 μM; for inhibition at 1 µM: 1.0 μM test compound, read-out: Percentage inhibition at 1.0 μM; for inhibition at 1 µM / inhibition at 10 µM / IC50: human TRPA1 CHO cells; for inhibition at 10 µM: 10.0 μM test compound, read-out: Percentage inhibition at 10.0 μM; for IC50: read-out: IC50 value (range)
Method: The illustrative examples of the present invention are screened for TRPA1 activity according to a modified procedure described in (a) Tóth, A. et al. Life Sciences (2003), 73, 487-498. ([…]. et al. Proc. Natl. Acad. Sci. U.S.A., (2007), 104, 13525-13530. The screening of the compounds can be carried out by other methods and procedures known to persons skilled in the art. Screening for TRPA1 Antagonist Using the ^45Calcium Uptake Assay The inhibition of TRPA1 receptor activation was measured as inhibition of allyl isothiocyanate (AITC) induced cellular uptake of radioactive calcium. […] Final concentration of DMSO in the reaction was 0.5% (v/v). […] Cells were seeded 24 h prior to the assay in 96 well plates so as to get 50,000 cells per well on the day of experiment. Cells were treated with test compounds for 10 min followed by addition of AITC at a final concentration of 30 μM and 5 μCi/ml ^45Ca^+2 for 3 min. […] Radioactivity in the lysate was measured in Packard Top count after addition of liquid scintillant. Concentration response curves were plotted as a % of maximal response obtained in the absence of test antagonist. IC50 value was calculated from concentration response curve by nonlinear regression analysis using GraphPad PRISM software.

T1 sequence (O75762 whole entry): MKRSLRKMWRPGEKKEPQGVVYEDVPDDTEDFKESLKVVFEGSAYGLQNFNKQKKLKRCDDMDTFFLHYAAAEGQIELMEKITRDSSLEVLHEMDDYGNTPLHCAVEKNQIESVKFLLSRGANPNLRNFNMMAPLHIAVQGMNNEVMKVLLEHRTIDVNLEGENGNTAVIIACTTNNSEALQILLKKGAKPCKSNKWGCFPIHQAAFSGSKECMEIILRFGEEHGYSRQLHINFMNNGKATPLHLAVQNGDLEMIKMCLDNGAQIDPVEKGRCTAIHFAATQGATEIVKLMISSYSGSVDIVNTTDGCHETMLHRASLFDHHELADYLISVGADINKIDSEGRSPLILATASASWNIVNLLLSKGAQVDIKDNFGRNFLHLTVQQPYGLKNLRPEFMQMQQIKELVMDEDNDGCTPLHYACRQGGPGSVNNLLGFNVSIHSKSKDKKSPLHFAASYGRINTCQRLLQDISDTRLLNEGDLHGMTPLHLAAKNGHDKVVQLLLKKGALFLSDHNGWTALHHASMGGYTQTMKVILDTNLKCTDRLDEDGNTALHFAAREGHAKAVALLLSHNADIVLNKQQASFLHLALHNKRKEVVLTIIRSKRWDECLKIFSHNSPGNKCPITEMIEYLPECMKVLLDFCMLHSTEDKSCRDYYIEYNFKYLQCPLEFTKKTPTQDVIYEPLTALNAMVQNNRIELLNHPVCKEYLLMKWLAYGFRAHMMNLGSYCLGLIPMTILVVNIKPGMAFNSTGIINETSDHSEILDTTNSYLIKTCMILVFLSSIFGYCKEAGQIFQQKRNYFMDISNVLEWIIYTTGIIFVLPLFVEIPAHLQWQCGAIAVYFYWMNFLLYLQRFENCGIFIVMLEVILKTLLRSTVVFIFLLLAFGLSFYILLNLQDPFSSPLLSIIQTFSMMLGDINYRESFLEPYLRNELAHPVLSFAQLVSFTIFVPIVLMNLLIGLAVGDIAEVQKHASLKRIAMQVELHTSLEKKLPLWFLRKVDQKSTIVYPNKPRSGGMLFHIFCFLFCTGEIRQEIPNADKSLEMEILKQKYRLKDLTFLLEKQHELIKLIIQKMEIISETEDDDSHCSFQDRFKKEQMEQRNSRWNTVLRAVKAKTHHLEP

inhibition at 1 µM [%] | inhibition at 10 µM [%] | IC50 [nM] | inhibition at 3 µM (CHO, 3 μM test compound (printed in the 10.0 μM column), read-out: Percentage inhibition (3 μM)) [%] | Structure (SMILES)
96.8 | 100 | < 50 |  | Cn1c(=O)c2c(CC(=O)Nc3nc(-c4ccc(OCC(F)(F)F)c(F)c4)cs3)cccc2n(C)c1=O [Example 59, N1-{4-[3-fluoro-4-(2,2,2-trifluoroethoxy)phenyl]-1,3-thiazol-2yl}-2-(1,3-dimethyl-2,4-dioxo-1,2,3,4-tetrahydro-5-quinazolinyl)acetamide]
1.31 | 41.3 |  |  | Cn1c(=O)c2c(CC(=O)Nc3nc(-c4ccc(OCC5CC5)c(F)c4)cs3)cccc2n(C)c1=O [Example 60, N1-[4-(4-Cyclopropylmethoxy-3-fluorophenyl)-1,3-thiazol-2yl]-2-(1,3-dimethyl-2,4-dioxo-1,2,3,4-tetrahydro-5-quinazolinyl)acetamide]
25 | 60.4 |  |  | Cn1c(=O)n(CC2CC2)c(=O)c2c(CC(=O)Nc3nc(-c4ccc(C(F)(F)F)c(F)c4)cs3)cccc21 [Example 61, N1-[4-(3-Fluoro-4-trifluoromethylphenyl)-1,3-thiazol-2-yl]-2-(1-methyl-3-cyclopropyl-methyl-2,4-dioxo-1,2,3,4-tetrahydro-5-quinazolinyl)acetamide]
59 | 94.2 | > 100 |  | Cn1c(=O)c2c(CC(=O)Nc3nc(-c4c(F)ccc(F)c4F)cs3)cccc2n(C)c1=O [Example 62]
87.1 | 96.9 | > 100 |  | Cn1c(=O)c2c(CC(=O)Nc3nc(-c4cc(F)c(Cl)cc4Cl)cs3)cccc2n(C)c1=O [Example 63, N1-[4-(2,4-Dichloro-5-fluorophenyl)-1,3-thiazol-2-yl]-2-(1,3-dimethyl-2,4-dioxo-1,2,3,4-tetrahydro-5-quinazolinyl)acetamide]
11.5 | 27 |  |  | Cn1c(=O)c2c(CC(=O)Nc3nc(-c4c(Cl)ccc(F)c4Cl)cs3)cccc2n(C)c1=O [Example 64, N1-[4-(2,6Dichloro-3-fluorophenyl)-1,3-thiazol-2-yl]-2-(1,3-dimethyl-2,4-dioxo-1,2,3,4-tetrahydro-5-quinazolinyl)acetamide]
99.4 | 99.6 | < 50 |  | Cn1c(=O)c2c(CC(=O)Nc3nc(-c4ccc(C(F)(F)F)c(F)c4F)cs3)cccc2n(C)c1=O [Example 65, N1-[4-(2,3-Difluoro-4-trifluormethylphenyl)-1,3-thiazol-2-yl]-2-(1,3-dimethyl-2,4-dioxo-1,2,3,4-tetrahydro-5-quinazolinyl)acetamide]
100 | 100 | < 50 |  | Cn1c(=O)c2c(CC(=O)Nc3nc(-c4cc(F)c(C(F)(F)F)c(F)c4)cs3)cccc2n(C)c1=O [Example 66, N1-{4-[3,5-Difluoro-4-trifluoromethylphenyl]-1,3-thiazol-2-yl}-2-(1,3-dimethyl-2,4-dioxo-1,2,3,4-tetrahydro-5-quinazolinyl)acetamide]
97.8 |  | < 50 | 99.5 | Cn1c(=O)c2c(CC(=O)Nc3nc(-c4ccc(F)c(C(F)(F)F)c4F)cs3)cccc2n(C)c1=O [Example 67, N1-{4-[2,4-Difluoro-3-trifluoromethylphenyl]-1,3-thiazol-2-yl}-2-(1,3-dimethyl-2,4-dioxo-1,2,3,4-tetrahydro-5-quinazolinyl)acetamide]
84.6 | 98.6 | > 100 |  | Cn1c(=O)c2c(CC(=O)Nc3nc(-c4c(F)ccc(C(F)(F)F)c4F)cs3)cccc2n(C)c1=O [Example 68, N1-{4-[2,6-Difluoro-3-trifluoromethylphenyl]-1,3-thiazol-2-yl}-2-(1,3-dimethyl-2,4-dioxo-1,2,3,4-tetrahydro-5-quinazolinyl)acetamide]
99.9 | 100 | < 50 |  | Cn1c(=O)c2c(CC(=O)Nc3nc(-c4cc(F)c(OC(F)F)c(F)c4)cs3)cccc2n(C)c1=O [Example 69]
100 | 99.9 | < 50 |  | Cn1c(=O)c2c(CC(=O)Nc3nc(-c4cc(F)c(OCC(F)(F)F)c(F)c4)cs3)cccc2n(C)c1=O [Example 70, N1-{4-[3,5-Difluoro-4-(2,2,2-trifluoroethoxy)phenyl]-1,3-thiazol-2-yl}-2-(1,3-dimethyl-2,4-dioxo-1,2,3,4-tetrahydro-5-quinazolinyl)acetamide]
83.6 | 98.9 | < 50 |  | COc1c(F)cc(-c2csc(NC(=O)Cc3cccc4c3c(=O)n(C)c(=O)n4C)n2)cc1F [Example 71, N1-[4-(3,5-Difluoro-4-methoxyphenyl)-1,3-thiazol-2-yl]-2-(1,3-dimethyl-2,4-dioxo-1,2,3,4-tetrahydroquinazolin-5-yl)acetamide]
95.4 | 96.5 | < 50 |  | Cn1c(=O)c2c(CC(=O)Nc3nc(-c4cc(F)c(OCC5CC5)c(F)c4)cs3)cccc2n(C)c1=O [Example 72, N1-[4-(4-Cyclopropylmethoxy-3,5-difluorophenyl)-1,3-thiazol-2-yl]-2-(1,3-dimethyl-2,4-dioxo-1,2,3,4-tetrahydroquinazolin-5-yl)acetamide]
32.5 | 72.6 |  |  | Cn1c(=O)c2c(CC(=O)Nc3nc(-c4c[nH]c5ccccc45)cs3)cccc2n(C)c1=O [Example 73, N1-[4-(1H-3-Indolyl)-1,3-thiazol-2-yl]-2-(1,3-dimethyl-2,4-dioxo-1,2,3,4-tetrahydro-5-quinazolinyl)acetamide]
96.3 | 97.7 | > 100 |  | Cn1c(=O)c2c(CC(=O)Nc3nc(-c4cn(C)c5ccccc45)cs3)cccc2n(C)c1=O [Example 74]
5.6 | 30.5 |  |  | Cn1c(=O)c2c(CC(=O)Nc3nc4ccccc4s3)cccc2n(C)c1=O [Example 75]
33 | 28.5 |  |  | Cn1c(=O)c2c(CC(=O)Nc3nc4ccc(F)cc4s3)cccc2n(C)c1=O [Example 76, N1-[6-Fluorobenzo[d][1,3]thiazol-2-yl)-2-(1,3-dimethyl-2,4-dioxo-1,2,3,4-tetrahydro-5-quinazolinyl)acetamide]
49.1 | 95.5 |  |  | Cc1cc2nc(NC(=O)Cc3cccc4c3c(=O)n(C)c(=O)n4C)sc2cc1C [Example 77, N1-(5,6-Dimethylbenzo[d][1,3]thiazol-2-yl)-2-(1,3-dimethyl-2,4-dioxo-1,2,3,4-tetrahydro-5-quinazolinyl)acetamide]
59.8 | 90.3 | > 100 |  | Cn1c(=O)c2c(CC(=O)Nc3nc4c(s3)CCc3cc(Cl)ccc3-4)cccc2n(C)c1=O [Example 78]
3.81 | 8.12 |  |  | Cn1c(=O)c2c(CC(=O)Nc3cc(-c4ccc(Cl)cc4)n[nH]3)cccc2n(C)c1=O [Example 79, N1-[3-(4-Chlorophenyl)-1H,5-pyrazolyl]-2-(1,3-dimethyl-2,4-dioxo-1,2,3,4-tetrahydro-5-quinazolinyl)acetamide]
97.2 | 99.7 | 50.1 to 100 |  | Cn1c(=O)c2c(CC(=O)Nc3ccn(-c4ccc(Cl)cc4)n3)cccc2n(C)c1=O [Example 80, N1-[1-(4-Chlorophenyl)-1H,3-pyrazolyl]-2-(1,3-dimethyl-2,4-dioxo-1,2,3,4-tetrahydro-5-quinazolinyl)acetamide]
97.1 | 99.6 | 50.1 to 100 |  | Cn1c(=O)c2c(CC(=O)Nc3ccn(-c4cccc(C(F)(F)F)c4)n3)cccc2n(C)c1=O [Example 81, N1-[1-(3-Trifluoromethylphenyl)-1H-3-pyrazolyl]-2-(1,3-dimethyl-2,4-dioxo-1,2,3,4-tetrahydro-5-quinazolinyl)acetamide]
76.7 | 90.7 | > 100 |  | Cn1c(=O)c2c(CC(=O)Nc3ccn(-c4ccc(Cl)cc4F)n3)cccc2n(C)c1=O [Example 82, N1-[1-(4-Chloro-2-Fluorophenyl)-1H-3-pyrazolyl]-2-(1,3-dimethyl-2,4-dioxo-1,2,3,4-tetrahydro-5-quinazolinyl)acetamide]
5.49 | 3.46 |  |  | Cn1c(=O)c2c(CC(=O)Nc3nnc(-c4ccc(Br)cc4)s3)cccc2n(C)c1=O [Example 83, N1-[5-(4-Bromophenyl)-1,3,4-thadiazol-2-yl]-2-(1,3-dimethyl-2,4-dioxo-1,2,3,4-tetrahydro-5-quinazolinyl)acetamide]
